Source: patent US12492195B2, “Preparation method for and crystal form of 3-aryloxy-3-five-membered heteroaryl-propylamine compound” (Zhangzhou Pien Tze Huang Pharmaceutical Co., Ltd., priority 2020, dated 2025)

How the values were obtained:
human TRPA1 channel = target: T1, human TRPA1 channel (Homo sapiens, UniProt O75762); assay: manual patch clamp detection of TRPA1 inhibitory activity; format: cell-based
T1 construct: expressed in transfected cells
Procedure: The stably transfected HEK293 cell line stably expressing human TRPA1 channel was placed in T75 culture flask with DMEM medium containing 15 μg/mL Blasticidin S HCl, 200 μg/mL Hygromycin B and 10% FBS, and cultured in an incubator in 5% CO2 at 37° C. When the cell density reached about 80%, the culture medium was removed, the residue was rinsed once with phosphate buffered saline (PBS) without calcium and magnesium. 2 mL of Trypsin was added to digest for 2 minutes, and 8 mL of culture medium was added to terminate the digestion. The cells were collected to 15 mL centrifuge tube and centrifuged at 800 rpm for 3 min. After the supernatant was removed, the cells were added to appropriate volume of extracellular fluid for re-suspending.
In manual patch clamp detection, HEKA system (Patch Master software) was used together with EPC-10 amplifier to record the whole cell current of TRPA1 stably transfected cell line at room temperature. […]
The record of data and the export of current amplitude measurement were carried out by Patch Master software. […] The original current data were corrected by software for leakage reduction, and the hTRPA1 current amplitude was measured at ±100 mV. The compound dose-effect curve and IC50 were fitted and calculated by GraphPad Prism 5.02 (GraphPad Sofhvare, San Diego, CA).

C57 mice = assay: hot plate pain model in mice; format: in vivo; settings: 10 mg/kg intraperitoneal, hot plate 55° C.
Procedure: SPF-grade C57 male mice were placed at hot plate with constant 55±0.1° C. […] If the pain reaction of mice was observed, the mice were taken out immediately to prevent mice from scalding. […] Appropriate amount of test compounds were added into required volume of physiological saline and fully suspended, and the concentration of the drug compound was prepared as 1 mg/ml. The standard volume of administration to mice was 10 ml/kg (or 0.1 ml/10 g). The administration mode was intraperitoneal administration. […] The administration volume was 10 ml/kg. […] Hot plate observation indicator is the time latency of mice on the hot plate at 55±0.1° C. Measurement and recording were conducted at 3 h before administration and 15 min, 30 min, and 60 min after administration. Maximum possible effect (MPE) % was used to evaluate analgesic effect of each compound, i.e., MPE %=[(Post drug latency-baseline latency)/(30-baseline latency)]×100. MPE % at different time points was recorded. The higher the value of MPE % was, the stronger the analgesic effect of the compound was.

mice = assay: ICS model in mice (fibromyalgia), mechanical hyperalgesia test; format: in vivo; settings: 10 mg/kg oral
Procedure: Male C57BUJ6 mice weighing 18-22 g at the beginning of experiment were selected. Each cage had 4 mice which were allowed to feed and drink water freely. Each experimental group had 12 mice, and the experimental mice were labeled by tail labeling method.
Day 0: At 4:30 pm, the mice were put in a plexiglass box with stainless steel mesh, and then the plexiglass box was put into a cold storage (4±2° C.) overnight. The mice were allowed to feed freely and agar was used to replace water.
Day 1: At 10:00 am, the mice were delivered to room temperature (24±2° C.) environment for 30 min, and then the mice were delivered to the cold storage for 30 min. The above steps were repeated until 4:30 pm, and the mice were put into the cold storage overnight.
The compounds were administered orally according to the schedule of experiment, and the dosage was 10 mg/kg.
On the fourth day after modeling, the pre-administration mechanical hyperalgesia test was performed on the animals. Animals with PWT value greater than 0.5 g were excluded and were not used for experiments. On the fifth day after modeling, the animals were tested for mechanical hyperalgesia test at 0.5 h, 1 h, and 2 h after the administration of compounds.
The mice were individually placed in a plexiglass box with a grid on the bottom of the box to ensure that the mice paw could be tested. The mice were allowed to adapt for 15 min before the test. After the adaptation was completed, the test fiber was used to test at the center of the left hind paw of mice. The test fiber comprised 8 test strengths: 2.36(0.02 g), 2.44(0.04 g), 2.83(0.07 g), 3.22(0.16 g), 3.61(0.4 g), 3.84(0.6 g), 4.08(1 g), and 4.17(1.4 g). During the test, the test fiber was pressed vertically against the skin and forced to bend for 6-8 s with a 5 s interval between each test. During the test, rapid withdrawal of animal paw was recorded as pain response. When the test fiber was removed from animal skin, the withdrawal of animal paw was also recorded as pain response. If animal moved or walked, the pain response was not recorded, and the test was repeated. In the test. 3.22(0.16 g) was used firstly. […] The maximum strength of tested fiber was 4.17(1.4 g).
Mechanical hyperalgesia was calculated by using the following formula: 50% response threshold (g)=(10^(Xf+k))/10,000; • Xf=the final test fiber value used in the test; • k=table value (Chaplan et al., 1994, page 62); • =mean difference 5. Data Collection and Analysis

ICR mice = assay: acetic acid writhing pain model in mice; format: in vivo; settings: for frequency of writhing response within 30 min: acetic acid 1 h after administration
Procedure: Male ICR mice, weighed 22-25 g, were fasted but allowed to drink water freely for 2 h before administration. All ICR mice were weighed and grouped randomly, and the number of animals in each group was greater than 10. […] […] The drug was administrated intragastrically based on the weight of mice. 1.5% acetic acid solution (0.1 ml/10 g) was injected intraperitoneally 1 hour after administration, and the frequency of visceral pain in each group of mice within 30 min was observed. When concave abdomen, stretched trunk and hind paw, and high buttocks appeared, one number point was recorded. Finally, the number of appearance of the above phenomenon was counted within 30 minutes.

T1 sequence (O75762 whole entry): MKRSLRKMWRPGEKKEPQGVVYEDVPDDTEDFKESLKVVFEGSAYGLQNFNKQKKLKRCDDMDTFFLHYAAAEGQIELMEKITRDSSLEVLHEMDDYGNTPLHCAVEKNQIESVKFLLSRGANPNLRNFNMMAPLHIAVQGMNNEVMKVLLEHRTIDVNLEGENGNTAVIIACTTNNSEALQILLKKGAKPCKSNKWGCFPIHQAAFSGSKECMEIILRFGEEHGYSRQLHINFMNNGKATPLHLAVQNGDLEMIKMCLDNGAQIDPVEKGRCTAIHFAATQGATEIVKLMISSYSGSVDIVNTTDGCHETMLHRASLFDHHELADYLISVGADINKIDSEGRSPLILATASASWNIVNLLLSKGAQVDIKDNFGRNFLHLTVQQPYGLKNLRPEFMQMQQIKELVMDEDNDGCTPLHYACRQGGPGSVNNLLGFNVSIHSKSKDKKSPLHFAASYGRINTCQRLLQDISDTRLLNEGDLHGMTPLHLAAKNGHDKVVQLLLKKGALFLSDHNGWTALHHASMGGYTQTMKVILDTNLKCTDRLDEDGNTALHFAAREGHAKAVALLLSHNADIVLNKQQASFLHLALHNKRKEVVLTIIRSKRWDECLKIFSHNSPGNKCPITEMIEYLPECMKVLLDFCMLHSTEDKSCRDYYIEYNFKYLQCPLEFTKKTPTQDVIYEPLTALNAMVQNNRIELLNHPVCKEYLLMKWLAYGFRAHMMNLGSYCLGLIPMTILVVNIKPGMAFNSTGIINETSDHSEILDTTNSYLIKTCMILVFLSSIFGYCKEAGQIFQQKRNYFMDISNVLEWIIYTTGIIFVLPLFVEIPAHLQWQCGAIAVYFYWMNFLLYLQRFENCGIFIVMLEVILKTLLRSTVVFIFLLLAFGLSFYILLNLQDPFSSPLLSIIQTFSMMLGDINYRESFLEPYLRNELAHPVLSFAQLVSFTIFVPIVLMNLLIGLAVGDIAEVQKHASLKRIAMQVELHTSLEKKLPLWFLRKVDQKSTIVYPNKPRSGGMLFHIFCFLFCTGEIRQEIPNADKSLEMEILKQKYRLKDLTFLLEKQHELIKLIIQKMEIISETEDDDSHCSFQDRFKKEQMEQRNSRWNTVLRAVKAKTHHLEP

| SMILES | ratio of IC50 of the S configuration of duloxetine to the IC50 of the compound (human TRPA1 channel) | analgesic activity compared with the positive controls gabapentin and duloxetine (C57 mice) | PWT(g) Mean ± SD (mice; 0.5 h after administration) | PWT(g) Mean ± SD (mice; 1 h after administration) | PWT(g) Mean ± SD (mice; 2 h after administration) | frequency of writhing response within 30 min (ICR mice; 5 mg/kg intragastric) | frequency of writhing response within 30 min (ICR mice; 10 mg/kg intragastric) | half effective dose (EDso) (ICR mice; acetic acid writhing, intragastric) | frequency of writhing response within 30 min (ICR mice; 20 mg/kg intragastric) |
| --- | --- | --- | --- | --- | --- | --- | --- | --- | --- |
| CNCC[C@H](Oc1cccc2ccoc12)c1cccs1 [IC-1, (S)-3-(Benzofuran-7-yloxy)-N-methyl-3-(thiophen-2-yl)propan-1-amine] | 10.14 | stronger than those of gabapentin and duloxetine | 0.482 ± 0.199 g | 0.773 ± 0.261 g | 0.607 ± 0.160 g | 20 times | 17 times | less than 5 mg/kg |  |
| CNCC[C@H](Oc1cccc2ccccc12)c1cccs1 [Duloxetine (S configuration), Duloxetine, reference compound] |  |  | 0.416 ± 0.140 g | 0.648 ± 0.155 g | 0.530 ± 0.235 g |  | 27 times |  | 21 times |
| CNCC[C@H](Oc1cccc2c1CCC2)c1cccs1 [IC-10] | 3.9 | stronger than those of gabapentin and duloxetine |  |  |  |  |  |  |  |
